According to US7829665B2 (priority 2005, dated 2010):

Biological target: T1, full-length NS3/NS4A-2 (HCV NS3 protease) (Hepatitis C virus genotype 1a, UniProt P27958)
T1 construct: Recombinant E. coli or Baculovirus full-length NS3 was diluted to 3.33 μM with assay buffer; made in house; host or cells: E. coli or baculovirus (BV) expression system
Experiment: NS3-NS4 protease assay / NS3 inhibition assay (RETS1 substrate, fluorescence kinetic read)
Assay type: biochemical
Conditions: Table 22; read-out: NS3-NS4 IC50
Description: NS3 complex formation with NS4A-2.
Recombinant E. coli or Baculovirus full-length NS3 was diluted to 3.33 μM with assay buffer and transferred material to an eppendorf tube and place in water bath in 4° C. refrigerator. The appropriate amount of NS4A-2 to 8.3 mM in assay buffer was added to equal the volume of NS3 in step 2.1.1 (conversion factor—3.8 mg/272 μL assay buffer). The material was transferred to an eppendorf tube and place in water bath in 4° C. refrigerator.
After equilibration to 4° C., equal volumes of NS3 and NS4A-2 solutions were combined in an eppendorf tube, mix gently with a manual pipettor, and incubate mixture for 15 minutes in the 4° C. water bath. Final concentrations in the mixture are 1.67 μM NS3, 4.15 mM NS4A-2 (2485-fold molar excess NS4A-2).
After 15 minutes at 4° C., the NS3/NS4A-2 eppendorf tube was removed and place it in a room temperature water bath for 10 minutes. NS3/NS4A-2 was alliquoted at appropriate volumes and store at −80° C. (E. coli NS3 run at 2 nM in assay, aliquot at 25 μL. BV NS3 run at 3 nM in assay, aliquot at 30 μL).
Sample compounds were dissolved to 10 mM in DMSO then diluted to 2.5 mM (1:4) in DMSO. Typically, compounds were added to an assay plate at 2.5 mM concentration, yielding upon dilution a starting concentration of 50 microM in the assay inhibition curve. Compounds were serial diluted in assay buffer to provide test solutions at lower concentrations.
The E. coli. NS3/NS4A-2 was diluted to 4 nM NS3 (1:417.5 of 1.67 μM stock−18 μL 1.67 μM stock+7497 μL assay buffer). The BV NS3/NS4A-2 was diluted to 6 nM NS3 (1:278.3 of 1.67 μM stock−24 μL 1.67 μM stock+6655 μL assay buffer). Using the manual multichannel pipettor, careful not to introduce bubbles into the plate, add 50 μL assay buffer to wells A01-H01 of a black Costar 96-well polypropylene storage plate.
Using the manual multichannel pipettor, careful not to introduce bubbles into the plate, add 50 μL of diluted NS3/NS4A-2 from step 2.2.6 to wells A02-H12 of plate in step 2.2.7. Using the manual multichannel pipettor, careful not to introduce bubbles into the plate, transfer 25 μL of the wells in drug dilution plate in step 2.2.5 to corresponding wells in assay plate in step 2.2.8. Change tips on multichannel pipettor for each row of compounds transferred. Using the manual multichannel pipettor, careful not to introduce bubbles into the plate, mix the wells from the assay plate in step 2.2.9 by aspirating and dispensing 35 μL of the 75 μL in each well five times. Change tips on multichannel pipettor for each row of wells mixed. Cover plate with a polystyrene plate lid and pre-incubate the plate from step 2.2.10 containing NS3 protease and sample compounds 10 minutes at room temperature. While plate from step 2.2.11 is pre-incubating, dilute RETS1 substrate in a 15 mL polypropylene centrifuge tube. Dilute RETS1 substrate to 8 μM (1:80.75 of 646 μM stock−65 μL 646 μM stock+5184 μL assay buffer).
After the plate in step is done pre-incubating, and using the manual multichannel, add 25 μL of substrate to all wells on the plate. Quickly mix the plate as in step 2.2.10, mixing 65 μL of the 100 μL in the wells.
Read the plate in kinetic mode on the Molecular Devices SpectraMax Gemini XS plate reader. Reader settings: Read time: 30 minutes, Interval: 36 seconds, Reads: 51, Excitation λ: 335 nm, Emission λ: 495 nm, cutoff: 475 nm, Automix: off, Calibrate: once, PMT: high, Reads/well: 6, Vmax pts: 21 or 28/51 depending on length of linearity of reaction
IC50 s are determined using a four parameter curve fit equation, and converted to Ki's using the following Km's: • Full-length E. coli NS3—2.03 μM • Full-length BV NS3—1.74 μM where Ki=IC50/(1+[S]/Km)) • Quantitation by ELISA of the selectable marker protein, Neomycin phosphotransferase II (NPTII) in the HCV Sub-Genomic Replicon, GS4.3

T1 sequence (P27958 1027-1657): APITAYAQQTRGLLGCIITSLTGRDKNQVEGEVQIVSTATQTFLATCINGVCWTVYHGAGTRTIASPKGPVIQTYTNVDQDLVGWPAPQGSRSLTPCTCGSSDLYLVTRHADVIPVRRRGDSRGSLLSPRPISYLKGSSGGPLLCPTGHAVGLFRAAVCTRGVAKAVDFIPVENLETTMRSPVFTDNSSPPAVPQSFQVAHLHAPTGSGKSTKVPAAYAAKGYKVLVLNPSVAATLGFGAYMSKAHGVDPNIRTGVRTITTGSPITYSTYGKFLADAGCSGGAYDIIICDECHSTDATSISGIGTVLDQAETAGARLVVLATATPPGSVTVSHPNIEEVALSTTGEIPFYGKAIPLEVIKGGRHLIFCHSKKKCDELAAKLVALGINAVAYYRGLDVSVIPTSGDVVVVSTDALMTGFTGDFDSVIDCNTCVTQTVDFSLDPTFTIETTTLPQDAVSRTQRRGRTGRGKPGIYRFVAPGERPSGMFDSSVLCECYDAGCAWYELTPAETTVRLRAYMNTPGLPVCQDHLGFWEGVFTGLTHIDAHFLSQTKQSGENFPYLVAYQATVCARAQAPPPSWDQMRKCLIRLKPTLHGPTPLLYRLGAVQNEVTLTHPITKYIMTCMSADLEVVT

`COC(=O)c1cccc(CNC(=O)[C@@]23C[C@H]2/C=C\CCCCC[C@H](NC(=O)OC(C)(C)C)C(=O)N2CCC[C@H]2C(=O)N3)c1` [Compound 2321] was tested. Which IC50 did it give?
The IC50 was under 1 µM.

For `CC(C)CNC(=O)[C@@]12C[C@H]1/C=C\CCCCC[C@H](NC(=O)OC(C)(C)C)C(=O)N1CCC[C@H]1C(=O)N2` [Compound 2314], which IC50 is on record?
The IC50 was under 1 µM.

Same assay, conditions: recombinant E. coli or Baculovirus full-length NS3 with NS4A-2; read-out: NS3-NS4 IC50

With `CC(C)(C)OC(=O)N[C@H]1CCCCC/C=C\[C@@H]2C[C@@]2(C(=O)NS(=O)(=O)NCCc2cccc(Cl)c2)NC(=O)[C@@H]2CCCN2C1=O` [Compound 411] as the molecule, how does the IC50 read?
Its IC50 is over 10 µM.

`CN(C)c1ccc(S(=O)(=O)NC(=O)[C@@]23C[C@H]2/C=C\CCCCC[C@H](NC(=O)OC2CCCC2)C(=O)N2C[C@H](OC(=O)N4CCc5ccccc5C4)C[C@H]2C(=O)N3)cc1` [Compound 183] was tested. Which IC50 did it give?
Its IC50 is under 0.1 µM.

With `CN1CCC(N(C2CC2)S(=O)(=O)NC(=O)[C@@]23C[C@H]2/C=C\CCCCC[C@H](NC(=O)OC(C)(C)C)C(=O)N2CCC[C@H]2C(=O)N3)CC1` [Compound 2211] as the molecule, how does the IC50 read?
The IC50 was under 1 µM.

For `CC(C)(C)OC(=O)N[C@H]1CCCCC/C=C\[C@@H]2C[C@@]2(C(=O)NS(=O)(=O)NC2(C#N)CC2)NC(=O)[C@@H]2CCCN2C1=O` [Compound 2212], which IC50 is on record?
The IC50 was under 1 µM.

Which IC50 does the source give for `CNC(=O)NC(=O)[C@@]12C[C@H]1/C=C\CCCCC[C@H](NC(=O)OC(C)(C)C)C(=O)N1C[C@H](OC(=O)N3Cc4ccccc4C3)C[C@H]1C(=O)N2` [Compound 703] here?
Its IC50 is under 1 µM.

With `C[C@@H](NC(=O)O[C@@H]1C[C@H]2C(=O)N[C@]3(C(=O)O)C[C@H]3/C=C\CCCCC[C@H](NC(=O)OC(C)(C)C)C(=O)N2C1)c1ccc(F)cn1` [Compound 148] as the molecule, how does the IC50 read?
Its IC50 is over 10 µM.

How did the IC50 turn out when `C[C@H](NC(=O)[C@@]12C[C@H]1/C=C\CCCCC[C@H](NC(=O)OC(C)(C)C)C(=O)N1CCC[C@H]1C(=O)N2)c1ccncc1` [Compound 501] was run?
The IC50 was over 10 µM.

Which IC50 does the source give for `CC(C)(C)OC(=O)N[C@H]1CCCCC/C=C\[C@@H]2C[C@@]2(C(=O)NS(=O)(=O)Cc2cccc(Cl)c2)NC(=O)[C@@H]2CCCN2C1=O` [Compound 2118] here?
The IC50 was under 1 µM.

`CC(C)(C)OC(=O)N[C@H]1CCCCC/C=C\[C@@H]2C[C@@]2(C(=O)NS(=O)(=O)NCCc2ccccc2Cl)NC(=O)[C@@H]2CCCN2C1=O` [Compound 402] was tested. Which IC50 did it give?
The IC50 was over 10 µM.

For `CC[C@@H]1C[C@H]2C(=O)N[C@]3(C(=O)O)C[C@H]3/C=C\CCCCC[C@H](NC(=O)OC3CCCC3)C(=O)N2C1` [Compound 313], which IC50 is on record?
The IC50 was under 10 µM.

`CC(C)(C)OC(=O)N[C@H]1CCCCC/C=C\[C@@H]2C[C@@]2(C(=O)NS(=O)(=O)c2ccc(Br)cc2)NC(=O)[C@@H]2CCCN2C1=O` [Compound 2131] was tested. Which IC50 did it give?
Its IC50 is under 10 µM.

`CC(C)(C)OC(=O)N[C@H]1CCCCC/C=C\[C@@H]2C[C@@]2(C(=O)NS(=O)(=O)c2cc3ccccc3s2)NC(=O)[C@@H]2CCCN2C1=O` [Compound 307] was tested. Which IC50 did it give?
The IC50 was under 10 µM.

`CC(C)(C)OC(=O)N[C@H]1CCCCC/C=C\[C@@H]2C[C@@]2(C(=O)NS(=O)(=O)NCCc2cccc3ccccc23)NC(=O)[C@@H]2CCCN2C1=O` [Compound 422] was tested. Which IC50 did it give?
Its IC50 is over 10 µM.

For `CC(C)(C)OC(=O)N[C@H]1CCCCC/C=C\[C@@H]2C[C@@]2(C(=O)NS(=O)(=O)C2CCCCC2)NC(=O)[C@@H]2CCCN2C1=O` [Compound 2121], which IC50 is on record?
The IC50 was under 1 µM.

`COc1ccc(S(=O)(=O)NC(=O)[C@@]23C[C@H]2/C=C\CCCCC[C@H](NC(=O)OC(C)(C)C)C(=O)N2CCC[C@H]2C(=O)N3)cc1` [Compound 2133] was tested. Which IC50 did it give?
Its IC50 is under 10 µM.

For `COc1c(C(=O)O)csc1S(=O)(=O)NC(=O)[C@@]12C[C@H]1/C=C\CCCCC[C@H](NC(=O)OC(C)(C)C)C(=O)N1CCC[C@H]1C(=O)N2` [Compound 311], which IC50 is on record?
The IC50 was under 10 µM.

Which IC50 does the source give for `CC(C)(C)OC(=O)N[C@H]1CCCCC/C=C\[C@@H]2C[C@@]2(C(=O)NS(=O)(=O)c2cccc(Br)c2)NC(=O)[C@@H]2CCCN2C1=O` [Compound 2112] here?
The IC50 was under 10 µM.

How did the IC50 turn out when `CC(C)(C)OC(=O)N[C@H]1CCCCC/C=C\[C@@H]2C[C@@]2(C(=O)NS(=O)(=O)c2cnc(Cl)c(Br)c2)NC(=O)[C@@H]2CCCN2C1=O` [Compound 2154] was run?
Its IC50 is under 10 µM.

For `CN(c1ccc(Cl)cc1)S(=O)(=O)NC(=O)[C@@]12C[C@H]1/C=C\CCCCC[C@H](NC(=O)OC(C)(C)C)C(=O)N1CCC[C@H]1C(=O)N2` [Compound 2226], which IC50 is on record?
The IC50 was under 10 µM.
